Measured values published in US20250339549A1, “METHODS FOR THE DETECTION AND TREATMENT OF NON-SMALL-CELL LUNG CANCER” (Board of Regents, The University of Texas System, priority 2022, published 2025).

Tests used:
ALPP [1] = experiment: ALPP expression in cancer cell lines after drug treatment (immunoblot, immunofluorescence, flow cytometry, qPCR, surface proteomics); type: cell-based, human; details: for ALPP expression after PI3K/AKT or MEK/ERK inhibition: HCC827 and H1650 (FIG. 8D: HCC827 and PC9); for ALPP induction by other EGFR inhibitors (immunoblots): EGFR-mutant H1650 and HCC827; for ALPP expression after drug washout and re-treatment: 48 hours treatment, 48 hours without inhibitor; for ALPP and percentage of ALPP+ cells over time: one to four days, 30 nM; for fold increase in ALPP expression: EGFR TKI treatment (FIG. 7D, FIG. 15B: 30 nM, 48 hours)
Description: ALPP and ALPPL2 expression analysis in whole cell extracts and in the surfaceome compartment was done by mass spectrometry as previously described^19-23. Each dataset was normalized to the total number of spectral counts for each compartment^24.
Images were acquired in z-series on a spinning-disk confocal system.
Probe for ALPP was purchased from Thermo Fisher Scientific (Hs03046558_s1).

HCC827 and PC9 cells [2] = experiment: Flow cytometry-based cell cycle analysis; design: species or system human; details: 30 nM
ALPP [3] = details: cited from earlier work
FoxO3a = FoxO3a phosphorylation, localisation and transcription in LUAD cells
HCC827 and PC9 cells [4] = details: 100 nM
[5] = test system: AKT (Ser473) and ERK (T202/Y204) phosphorylation; experiment: Immunoblots for AKT and ERK phosphorylation in LUAD cells; type: cell-based, human; details: H2291 and H1650; EGF 10 or 20 ng/mL, gefitinib 0.5 or 1 μM
ALPP promoter = experiment: ChIP-qPCR for FoxO3a binding to the promoter region of ALPP gene; type: cell-based, human; details: H1650 and HCC827; 1 μM, 6 hours
Description: Subsequently, the DNA-protein complexes were enriched with Protein A/G magnetic Beads and DNA was recovered by the DNA Clean-up column.

ALPP [6] = experiment: IHC for ALPP in tumor and normal tissues of gefitinib-treated H1650 tumor-bearing mice; type: in vivo, BALB/c nude mice; details: 50 mg/kg daily for 10 days
Method: IHC staining was performed as previously described 25.

ALPP [7] = details: PC9 xenograft tumors; GSE161584; cited from earlier work
[8] = EGFR mut H1650, 24- and 48-hour treatment

## Nc1cc(C(F)(F)F)c(-c2cc(N3CCOCC3)nc(N3CCOCC3)n2)cn1 [NVP-BKM120]
ALPP [1]; 100 nM, 48 hours
  ALPP expression after PI3K/AKT or MEK/ERK inhibition: drastic induction of ALPP expression

## CS(=O)(=O)CCNCc1ccc(-c2ccc3ncnc(Nc4ccc(OCc5cccc(F)c5)c(Cl)c4)c3c2)o1 [lapatinib]
ALPP [1]
  ALPP induction by other EGFR inhibitors (immunoblots): yielded similar results

## C=CC(=O)Nc1cc(Nc2nccc(-c3cn(C)c4ccccc34)n2)c(OC)cc1N(C)CCN(C)C [osimertinib]
HCC827 and PC9 cells [2]
  cell cycle arrest in G0/G1: statistically significantly increased cell cycle arrest in G0/G1
ALPP [3]; 4 LUAD cell lines, RNAseq data GSE193258
  Ingenuity Pathway Analysis of upstream regulators: concordant activation of FoxO3a, but not FoxO1
ALPP [3]; PC9, 0, 3, 7, 14 days, GSE150949
  ALPP gene expression, single cell transcriptomics: progressive increase in ALPP gene expression
ALPP [3]; PC9, day 14, GSE150949
  LUAD cells expressing ALPP: ~50%
ALPP [1]
  ALPP induction by other EGFR inhibitors (immunoblots): yielded similar results
ALPP [1]; HCC827 and PC9, 30 nM (FIG. 8K)
  ALPP expression (immunoblots): increased ALPP expression
ALPP [1]; HCC827 and PC9
  ALPP expression after drug washout and re-treatment: markedly reduced in the absence of EGFR inhibitors and was restored with the addition of inhibitors
  ALPP and percentage of ALPP+ cells over time: gradual and sustained increase of ALPP and percentage of ALPP^+ cells
ALPP [1]; HCC827 cells
  fold increase in ALPP expression: ~60 fold
ALPP [1]; PC9 cells
  fold increase in ALPP expression: ~110 fold
FoxO3a; HCC827 and PC9, 30 nM
  phosphorylation of EGFR and FoxO3a: suppressed the phosphorylation of EGFR and FoxO3a
HCC827 and PC9 cells [4]
  emergence of drug-resistant clones under continuous TKI treatment: led to the emergence of drug-resistant clones

## O=C(Nc1ccc2[nH]nc(-c3ccncc3)c2c1)[C@@H]1CCN(CC(=O)N2CCN(c3ccc(-c4ncccn4)cc3)CC2)C1 [SCH772984]
ALPP [1]; 100 nM, 48 hours
  ALPP expression after PI3K/AKT or MEK/ERK inhibition: drastic induction of ALPP expression

## COc1cc2ncnc(Nc3ccc(F)c(Cl)c3)c2cc1OCCCN1CCOCC1 [gefitinib]
[5]
  AKT and ERK phosphorylation: repressed phosphorylation of AKT and ERK
ALPP [1]; [8]
  ALPP expression (immunoblots): ALPP upregulation
ALPP [1]; EGFR mutant H1650 and PC9, 24- and 48-hour treatment
  surface ALPP expression (mass spectrometry, immunofluorescence): pronounced upregulation of surface ALPP expression
ALPP [1]; EGFR wild-type, KRAS mutant H2291 and H1838
  ALPP expression (immunoblots): increased ALPP expression, although to a lesser extent
ALPP [1]; GR HCC827 and PC9, 100 nM
  surface ALPP by flow cytometry in gefitinib-resistant cells: majority of gefitinib-resistant cells expressed high level of ALPP
ALPP [1]; GR HCC827 and PC9, 100 nM, 48 hours
  ALPP expression in gefitinib-resistant (GR) cells: further enhanced ALPP upregulation
ALPP [1]; H1395, H1944, HCC2279, 1 μM, 48 hours
  ALPP upregulation in ALPP non-expressing cell lines: did not upregulate ALPP
ALPP [1]; H1650 and HCC827
  ALPP mRNA levels: concomitant increases in ALPP mRNA levels
ALPP [1]; H2291, H1650, H1838, H1651, 1 μM, 48 hours
  ALPP levels in ALPP-positive LUAD cell lines: exhibited elevated ALPP levels
ALPP [1]; HCC827 and PC9
  ALPP expression after drug washout and re-treatment: markedly reduced in the absence of EGFR inhibitors and was restored with the addition of inhibitors
  ALPP and percentage of ALPP+ cells over time: gradual and sustained increase of ALPP and percentage of ALPP^+ cells
ALPP [1]; TNBC cell lines BT20 and HCC1937, 1 μM
  ALPP expression (immunoblots): increased ALPP expression
FoxO3a; H1650 and HCC827
  FoxO3a cytosol/nucleus distribution: reduced cytosolic FoxO3a and promoted its nuclear translocation
FoxO3a; H1650 and HCC827, 30 nM, 6 hours
  phosphorylation of FoxO3a (Ser294, Ser425): repressed phosphorylation of FoxO3a at Ser294 and Ser425 residues
FoxO3a; LUAD cells
  transcription of FOXO3A: not affected
ALPP promoter
  FoxO3a binding to ALPP promoter (ChIP-qPCR): induced FoxO3a binding to ALPP promoter sequences
ALPP [6]
  tumoral ALPP surface expression (IHC): pronounced increases in tumoral ALPP surface expression
ALPP [6]; normal tissues
  ALPP protein staining in other tissues (IHC): negative or showed no appreciable difference compared to the vehicle control

## EGF: epidermal growth factor, the endogenous ligand of EGFR
[5]
  AKT and ERK phosphorylation: induced AKT phosphorylation at serine 473 (Ser473), and ERK phosphorylation at threonine 202 (T202) and tyrosine 204 (Y204) residues
ALPP [1]; [8]
  ALPP expression (immunoblots): reduced ALPP expression
ALPP [1]; H1650 and H2291, EGF 10 or 20 ng/mL, 24 and 48 hours
  ALPP expression in EGF-containing growth medium: drastically reduced

## C#Cc1cccc(Nc2ncnc3cc(OCCOC)c(OCCOC)cc23)c1 [erlotinib]
ALPP [7]
  ALPP mRNA expression in xenograft tumors: increased ALPP mRNA expression in erlotinib-responding tumors compared with treatment naïve tumors

## Cc1cc(C(=O)NOCCO)c(Nc2ccc(I)cc2F)n(C)c1=O [AZD8330]
ALPP [1]; 100 nM, 48 hours
  ALPP expression after PI3K/AKT or MEK/ERK inhibition: drastic induction of ALPP expression

## CCn1cc(C(=O)O)c(=O)c2c(N)c(F)c(NC3CCCCC3)cc21 [AS1842856]
ALPP [1]; LUAD cells (HCC827 and PC9), 48 hours
  ALPP protein expression after FoxO inhibition: diminished ALPP protein expression
ALPP [1]; LUAD cells (HCC827 and PC9), with gefitinib, 48 hours
  effect on gefitinib-mediated ALPP upregulation: blunted gefitinib-mediated ALPP upregulation
